Active and inactive are the calls of the source. The rule behind the calls is not given here.
Assays:
Rattus norvegicus [1] = assay: Toxicity in […] chronic ob/ob model assessed as body weight at 10 mg/kg, po qd for 28 days measured on day 28 post last dose (reference value: 47.3 +/- 1.06 g); assay type: organism-based; settings: in vivo, 672 h
Rattus norvegicus [2] = assay: Effect on PIK3R6 gene expression in epididymal white adipose tissue of Zucker rat sub-chronic fa/fa prediabetic model at 10 mg/kg, po qd for 15 days by microarray analysis relative to control; assay type: functional
Rattus norvegicus [3] = assay: Toxicity in Zucker rat sub-chronic fa/fa prediabetic model assessed as heart weight at 3 mg/kg, po qd for 31 days measured on day 32 (reference value: 1.19 +/- 0.04 g); assay type: organism-based; settings: in vivo, 744 h
Rattus norvegicus [4] = assay: Toxicity in Zucker rat sub-chronic fa/fa prediabetic model assessed as serum triglyceride level at 10 mg/kg, po qd for 31 days measured on day 32 (reference value: 1382 +/- 268 mg/dl); assay type: organism-based; settings: in vivo, 744 h
Rattus norvegicus [5] = assay: Effect on ACOT2 gene expression in epididymal white adipose tissue of Zucker rat sub-chronic fa/fa prediabetic model at 10 mg/kg, po qd for 15 days by microarray analysis relative to control; assay type: functional
Rattus norvegicus [6] = assay: Toxicity in […] model assessed as liver weight at 3 mg/kg, po qd for 31 days measured on day 32 (reference value: 2.77 +/- 0.16 g); assay type: organism-based; settings: in vivo, 744 h
[7] = Drug uptake in fat tissue of Zucker rat sub-chronic fa/fa prediabetic model at 12.5 mg/kg, po qd for 11 days; assay type: ADME, organism-based, Adipose tissue; settings: read-out: Drug uptake
Rattus norvegicus [8] = assay: Effect on MLYCD gene expression in epididymal white adipose tissue of Zucker rat sub-chronic fa/fa prediabetic model at 10 mg/kg, po qd for 15 days by microarray analysis relative to control; assay type: functional
Rattus norvegicus [9] = assay: Antidiabetic activity in po dosed Zucker rat chronic ob/ob model assessed as reduction in HbA1c level administered once daily for 31 days measured on day 28 post dose by OGTT; assay type: functional, organism-based
Rattus norvegicus [10] = assay: Effect on PIK3CD gene expression in epididymal white adipose tissue of Zucker rat sub-chronic fa/fa prediabetic model at 10 mg/kg, po qd for 15 days by microarray analysis relative to control; assay type: functional
Rattus norvegicus [11] = assay: Toxicity in Zucker rat sub-chronic fa/fa prediabetic model assessed as body weight at 10 mg/kg, po qd for 29 days measured on day 29 post last dose (reference value: 533 +/- 10 g); assay type: organism-based; settings: in vivo, 696 h
Rattus norvegicus [12] = assay: Toxicity in Zucker rat sub-chronic fa/fa prediabetic model assessed as change in body weight at 1 mg/kg, po qd for 29 days measured on day 1 to 29 during compound dosing (reference value: 140 +/- 7 g); assay type: organism-based; settings: in vivo, 696 h
Rattus norvegicus [13] = assay: Toxicity in Zucker rat sub-chronic fa/fa prediabetic model assessed as serum triglyceride level at 3 mg/kg, po qd for 31 days measured on day 32 (reference value: 1382 +/- 268 mg/dl); assay type: organism-based; settings: in vivo, 744 h
Rattus norvegicus [14] = assay: Effect on UGP2 gene expression in epididymal white adipose tissue of Zucker rat sub-chronic fa/fa prediabetic model at 10 mg/kg, po qd for 15 days by microarray analysis relative to control; assay type: functional
Rattus norvegicus [15] = assay: Toxicity in Zucker rat sub-chronic fa/fa prediabetic model assessed as effect on liver enzymes at 10 mg/kg, po qd during 10 days study; assay type: organism-based; settings: in vivo, 240 h
[16] = Drug uptake in liver of Zucker rat sub-chronic fa/fa prediabetic model at 12.5 mg/kg, po qd for 11 days; assay type: ADME, organism-based; settings: read-out: Drug uptake
Rattus norvegicus [17] = assay: Effect on IGFBP6 gene expression in epididymal white adipose tissue of Zucker rat sub-chronic fa/fa prediabetic model at 10 mg/kg, po qd for 15 days by microarray analysis relative to control; assay type: functional
[18] = AUC (0 to 24 hrs) in Zucker rat sub-chronic fa/fa prediabetic model at 1 mg/kg, po qd measured on day 1 post dose; assay type: ADME, organism-based; set-up: time < 24 hr, dose 1 mg/kg, route oral; settings: in vivo
Rattus norvegicus [19] = assay: Antidiabetic activity in Zucker rat sub-chronic fa/fa prediabetic model assessed as increase in serum adiponectin level administered orally once daily for 4 days by ELISA; assay type: functional, organism-based
Rattus norvegicus [20] = assay: Toxicity in Zucker rat sub-chronic fa/fa prediabetic model assessed as heart weight at 1 mg/kg, po qd for 31 days measured on day 32 (reference value: 1.19 +/- 0.04 g); assay type: organism-based; settings: in vivo, 744 h
Rattus norvegicus [21] = assay: Effect on MED24 gene expression in epididymal white adipose tissue of Zucker rat sub-chronic fa/fa prediabetic model at 10 mg/kg, po qd for 15 days by microarray analysis relative to control; assay type: functional
Rattus norvegicus [22] = assay: Toxicity in […] chronic ob/ob model assessed as brown adipose tissue weight at 50 mg/kg, po qd for 31 days measured on day 32 (reference value: 0.59 +/- 0.05 g); assay type: organism-based; settings: in vivo, 744 h
Rattus norvegicus [23] = assay: Toxicity in Zucker rat sub-chronic fa/fa prediabetic model assessed as liver weight at 10 mg/kg, po qd for 31 days measured on day 32 (reference value: 28 +/- 1.6 g); assay type: organism-based; settings: in vivo, 744 h
Rattus norvegicus [24] = assay: Toxicity in Zucker rat sub-chronic fa/fa prediabetic model assessed as insulin level per gram pancreas at 50 mg/kg, po qd for 31 days measured on day 32 (reference value: 55.2 +/- 5.5 ug); assay type: organism-based; settings: in vivo, 744 h
Rattus norvegicus [25] = assay: Toxicity in Zucker rat sub-chronic fa/fa prediabetic model assessed as heart weight at 50 mg/kg, po qd for 31 days measured on day 32 (reference value: 1.19 +/- 0.04 g); assay type: organism-based; settings: in vivo, 744 h
Rattus norvegicus [26] = assay: Toxicity in […] model assessed as serum AST level at 3 mg/kg, po qd for 31 days measured on day 32 (reference value: 180 +/- 26 U/L); assay type: organism-based; settings: in vivo, 744 h
[27] = molecular target: Oxysterols receptor LXR-alpha (Homo sapiens, UniProt Q13133); assay: Agonist activity at recombinant GST-tagged human LXRalpha LBD assessed as fluorescein-labeled coactivator peptide recruitment preincubated with enzyme followed by coactivator addition by LanthaScreen TR-FRET assay
Oxysterols receptor LXR-alpha, sequence (Q13133 whole entry, the tested form may be a part): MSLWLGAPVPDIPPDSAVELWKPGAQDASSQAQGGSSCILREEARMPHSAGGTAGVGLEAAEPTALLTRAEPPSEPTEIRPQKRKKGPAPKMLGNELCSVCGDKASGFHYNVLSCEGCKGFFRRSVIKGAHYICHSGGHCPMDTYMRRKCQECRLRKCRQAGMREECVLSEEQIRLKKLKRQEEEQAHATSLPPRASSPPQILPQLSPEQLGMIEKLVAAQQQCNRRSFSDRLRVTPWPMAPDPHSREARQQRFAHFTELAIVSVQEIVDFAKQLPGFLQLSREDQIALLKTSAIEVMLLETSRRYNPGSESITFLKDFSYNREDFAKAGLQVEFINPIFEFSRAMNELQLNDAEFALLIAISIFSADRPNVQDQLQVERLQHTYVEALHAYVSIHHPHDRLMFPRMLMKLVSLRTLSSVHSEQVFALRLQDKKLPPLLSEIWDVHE

Rattus norvegicus [28] = assay: Toxicity in Zucker rat sub-chronic fa/fa prediabetic model assessed as brown adipose tissue weight at 10 mg/kg, po qd for 31 days measured on day 32 (reference value: 2.1 +/- 0.3 g); assay type: organism-based; settings: in vivo, 744 h
Rattus norvegicus [29] = assay: Toxicity in Zucker rat sub-chronic fa/fa prediabetic model assessed as serum BUN level at 50 mg/kg, po qd for 31 days measured on day 32 (reference value: 28.3 +/- […]); assay type: organism-based; settings: in vivo, 744 h
[30] = Cmax in […] at 15 mg/kg administered via oral gavage by LC-MS analysis; assay type: ADME, organism-based; set-up: dose 15 mg/kg, route oral; settings: in vivo
Rattus norvegicus [31] = assay: Effect on ACAT1 gene expression in epididymal white adipose tissue of Zucker rat sub-chronic fa/fa prediabetic model at 10 mg/kg, po qd for 15 days by microarray analysis relative to control; assay type: functional
Rattus norvegicus [32] = assay: Increase in ACADM mRNA expression in epididymal white adipose tissue of Zucker rat sub-chronic fa/fa prediabetic model at 10 mg/kg, po qd for 15 days by RT-PCR method; assay type: functional, organism-based
Rattus norvegicus [33] = assay: Toxicity in Zucker rat sub-chronic fa/fa prediabetic model assessed as serum triglyceride level at 1 mg/kg, po qd for 31 days measured on day 32 (reference value: 1382 +/- 268 mg/dl); assay type: organism-based; settings: in vivo, 744 h

In the case of `CN1CC[C@@H](N2C(=O)S/C(=C\c3ccc4c(cnn4Cc4ccc(Cl)cc4C(F)(F)F)c3)C2=O)[C@H](F)C1`, the Activity (Rattus norvegicus [1]) is reported as 46.2 g, the “fold change (FC)” value (Rattus norvegicus [2]) is reported as -1.276 and the Activity (Rattus norvegicus [3]) is reported as 1.15 g. For the same compound, the Activity (Rattus norvegicus [4]) was 341 mg/dL, the “fold change (FC)” value (Rattus norvegicus [5]) was 1.364 and the Activity (Rattus norvegicus [6]) was 2.65 g. The concentration at 264 h [7] was 58100 ng/g, the “fold change (FC)” value (Rattus norvegicus [8]) was 1.608 and the Activity (Rattus norvegicus [9]) was “Dose-dependent effect”. The “fold change (FC)” value (Rattus norvegicus [10]) was -1.312, the Activity (Rattus norvegicus [11]) was 551 g and the Activity (Rattus norvegicus [12]) was 142 g. For the same compound, the Activity (Rattus norvegicus [13]) was 584 mg/dL, the “fold change (FC)” value (Rattus norvegicus [14]) was 1.803 and the Activity (Rattus norvegicus [15]) was “Non-Toxic”. The concentration at 264 h [16] was 12400 ng/g, the “fold change (FC)” value (Rattus norvegicus [17]) was -1.269 and the AUC(0-t) at 24 h [18] was 1760 ng·h/mL. For the same compound, the Activity (Rattus norvegicus [19]) was “Dose-dependent effect”, the Activity (Rattus norvegicus [20]) was 1.16 g and the “fold change (FC)” value (Rattus norvegicus [21]) was -1.216. For the same compound, the Activity (Rattus norvegicus [22]) was 1.31 g, the Activity (Rattus norvegicus [23]) was 18.5 g and the Activity (Rattus norvegicus [24]) was 94 µg. It also gave an Activity (Rattus norvegicus [25]) of 1.19 g, an Activity (Rattus norvegicus [26]) of 211 U/L and an EC50 [27] greater than 10 µM. It also gave an Activity (Rattus norvegicus [28]) of 8.7 g, an Activity (Rattus norvegicus [29]) of 23.9 mg/dL and a Cmax [30] of 4020 ng/mL. The “fold change (FC)” value (Rattus norvegicus [31]) was 1.634, the Activity (Rattus norvegicus [32]) was “Active” and the Activity (Rattus norvegicus [33]) was 1040 mg/dL.
